Experimental data from patent US9938322B2, “β-hairpin peptidomimetics” (priority 2013, dated 2018).
Where a SMILES comes first, the peptide text is derived from it. [ ]: non-standard residue; d: D form. Abu(4,4,4-F3) = N[C@@H](CC(F)(F)F)C(=O)O; Cha = N[C@@H](CC1CCCCC1)C(=O)O; Tle = CC(C)(C)[C@H](N)C(=O)O; dDab = NCC[C@@H](N)C(=O)O; Orn = NCCC[C@H](N)C(=O)O; Dab = NCC[C@H](N)C(=O)O

Test system: human red blood cells (hRBC)
Assay: Hemolysis of human red blood cells
Type: cell-based
Details: red cells of human, 1 h, 100
Procedure, shortened: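 Washed fresh human erythrocytes (20% v/v, about 0.9×10^9 cells/ml final) incubated with peptide at 100 μg/ml for 1 h at 37° C with shaking. Supernatant OD540 read; hemolysis expressed relative to 2.5% Triton X-100 (100%) and PBS with 0.001% acetic acid (0%).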

Row | SMILES | Hemolysis at 100 μg/ml
1 | CC[C@H](C)[C@@H]1NC(=O)[C@@H]2CCCN2C(=O)[C@H]2CCCN2C(=O)[C@H](CO)NC(=O)[C@H](CO)NC(=O)[C@H](C(C)(C)C)NC(=O)[C@H](CCN)NC(=O)[C@H](Cc2c[nH]c3ccccc23)NC(=O)[C@H](CCN)NC(=O)[C@@H](CCN)NC(=O)[C@H](CCCN)NC(=O)[C@H](CCN)NC(=O)[C@H](CC2CCCCC2)NC(=O)[C@H](C)NC1=O [compound 151] (cyclo(IA[Cha][Dab][Orn][dDab][Dab]W[Dab][Tle]SS[dP]P)) | 7%
2 | CC(C)C[C@@H]1NC(=O)[C@@H]2CCCN2C(=O)[C@H]2CCCN2C(=O)[C@H](CO)NC(=O)[C@H](CO)NC(=O)[C@H](C(C)(C)C)NC(=O)[C@H](CCN)NC(=O)[C@H](Cc2c[nH]c3ccccc23)NC(=O)[C@H](CCN)NC(=O)[C@@H](CCN)NC(=O)[C@H](CCCN)NC(=O)[C@H](CCN)NC(=O)[C@H](CC2CCCCC2)NC(=O)[C@H](C)NC1=O [compound 152] (cyclo(LA[Cha][Dab][Orn][dDab][Dab]W[Dab][Tle]SS[dP]P)) | 5%
3 | C[C@@H]1NC(=O)[C@H](C(C)(C)C)NC(=O)[C@H](CCN)NC(=O)[C@H](Cc2c[nH]c3ccccc23)NC(=O)[C@H](CCN)NC(=O)[C@@H](CCN)NC(=O)[C@H](CCCN)NC(=O)[C@H](CCN)NC(=O)[C@H](Cc2ccc(O)cc2)NC(=O)[C@H](CO)NC(=O)[C@H](Cc2ccc(O)cc2)NC(=O)[C@@H]2CCCN2C(=O)[C@H]2CCCN2C(=O)[C@H](Cc2ccc(O)cc2)NC1=O [compound 153] (cyclo(YSY[Dab][Orn][dDab][Dab]W[Dab][Tle]AY[dP]P)) | 2%
4 | CC(C)C[C@@H]1NC(=O)[C@@H]2CCCN2C(=O)[C@H]2CCCN2C(=O)[C@H](CO)NC(=O)[C@@H](C)NC(=O)[C@H](C(C)(C)C)NC(=O)[C@H](CCN)NC(=O)[C@H](Cc2c[nH]c3ccccc23)NC(=O)[C@H](CCN)NC(=O)[C@@H](CCN)NC(=O)[C@H](CCCN)NC(=O)[C@H](CCN)NC(=O)[C@H](Cc2ccc(O)cc2)NC(=O)[C@H](CO)NC1=O [compound 154] (cyclo(LSY[Dab][Orn][dDab][Dab]W[Dab][Tle][dA]S[dP]P)) | 0%
5 | CC(C)C[C@@H]1NC(=O)[C@@H]2CCCN2C(=O)[C@H]2CCCN2C(=O)[C@H](CO)NC(=O)[C@H](C)NC(=O)[C@H](C(C)(C)C)NC(=O)[C@H](CCN)NC(=O)[C@H](Cc2c[nH]c3ccccc23)NC(=O)[C@@H](CCN)NC(=O)[C@@H](CCN)NC(=O)[C@H](CCCN)NC(=O)[C@H](CCN)NC(=O)[C@H](Cc2ccc(O)cc2)NC(=O)[C@H](CO)NC1=O [compound 155] (cyclo(LSY[Dab][Orn][dDab][dDab]W[Dab][Tle]AS[dP]P)) | 0%
6 | C[C@@H]1NC(=O)[C@H](C(C)(C)C)NC(=O)[C@H](CCN)NC(=O)[C@H](Cc2c[nH]c3ccccc23)NC(=O)[C@H](CCN)NC(=O)[C@@H](CCN)NC(=O)[C@H](CCCN)NC(=O)[C@H](CCN)NC(=O)[C@H](Cc2ccc(O)cc2)NC(=O)[C@H](CO)NC(=O)[C@H](CC(F)(F)F)NC(=O)[C@@H]2CCCN2C(=O)[C@H]2CCCN2C(=O)[C@H](CO)NC1=O [compound 156] (cyclo([Abu(4,4,4-F3)]SY[Dab][Orn][dDab][Dab]W[Dab][Tle]AS[dP]P)) | 1%
7 | CC(C)C[C@@H]1NC(=O)[C@@H]2CCCN2C(=O)[C@H]2CCCN2C(=O)[C@H](CO)NC(=O)[C@H](CCN)NC(=O)[C@H](C(C)(C)C)NC(=O)[C@H](CCN)NC(=O)[C@H](Cc2c[nH]c3ccccc23)NC(=O)[C@H](CCN)NC(=O)[C@@H](CCN)NC(=O)[C@H](CCCN)NC(=O)[C@H](CCN)NC(=O)[C@H](Cc2ccc(O)cc2)NC(=O)CNC1=O [compound 157] (cyclo(LGY[Dab][Orn][dDab][Dab]W[Dab][Tle][Dab]S[dP]P)) | 1%
